Experimental data taken from patent US20180000719A1, “A SKIN LIGHTENING COMPOSITION COMPRISING NIACINAMIDE AND ILOMASTAT” (Conopco, Inc., d/b/a UNILEVER, priority 2014, published 2018).

Key:
[1] = system: primary human melanocytes; experiment: cells
Description: (i) Cell Cultures: • Neonatal foreskin primary human melanocytes were procured from Life Technologies, USA. Cells were grown in Medium 254 supplemented with human melanocyte growth supplement-2 and maintained at 37° C. in a humidified incubator with 5% CO2 atmosphere. The maintenance and sub culturing of cells were carried out as per the manufacturer's instructions. Cells between passages 3-6 were used for experimentation.
(ii) Active Addition: • Cells were seeded at a density of 5×10^4/well in a 24 well plate in Melanocyte Growth Media (MGM) and incubated for 24 hrs at 37° C./5% CO2. Actives were added to cells along with relevant controls.
(iii) Cell Viability Assay • Briefly, spent media was removed and cells washed once with 0.2 ml of 1×PBS-Ca—Mg solution. Fresh 1 μM calcein-AM in PBS buffer was added to each well. Plates were incubated for 30 min. at 37° C. in a CO2 incubator. Calcein fluorescence was then measured (excitation at 490 nm and emission at 520 nm) in TECAN M1000 plate reader.
(iv) Melanin Content Assay: • After Calcein measurements, cultures were rinsed with PBS (1×) and lysed for 1 hour at 60° C. in a shaker incubator using NaOH/DMSO mix. Melanin content was measured in a Tecan plate reader (405 nm filter), corrected for cell numbers and represented as % inhibition.

Tyrosinase enzyme = target: T1, Tyrosinase enzyme (Homo sapiens, UniProt P14679); experiment: In vitro human tyrosinase activity assay (melanocytic lysate); assay type: biochemical
T1 construct: Primary human melanocytic lysate was used as a source of Tyrosinase enzyme; endogenous in cells; host or cells: primary human melanocytes (lysate)
T1 sequence (P14679 19-529): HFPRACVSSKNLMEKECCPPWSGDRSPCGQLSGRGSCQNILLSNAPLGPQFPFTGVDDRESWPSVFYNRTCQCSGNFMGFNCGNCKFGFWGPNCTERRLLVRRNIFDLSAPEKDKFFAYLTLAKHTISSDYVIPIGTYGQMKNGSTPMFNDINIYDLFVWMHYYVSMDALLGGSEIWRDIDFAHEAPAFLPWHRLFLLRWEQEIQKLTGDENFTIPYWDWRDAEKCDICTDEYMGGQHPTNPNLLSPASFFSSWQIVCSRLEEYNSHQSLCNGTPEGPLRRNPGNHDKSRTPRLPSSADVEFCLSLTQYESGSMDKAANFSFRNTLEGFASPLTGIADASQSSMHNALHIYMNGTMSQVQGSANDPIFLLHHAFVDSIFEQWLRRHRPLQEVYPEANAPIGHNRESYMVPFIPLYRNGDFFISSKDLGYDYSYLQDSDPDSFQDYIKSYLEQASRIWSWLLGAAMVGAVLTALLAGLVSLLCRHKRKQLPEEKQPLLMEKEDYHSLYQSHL
Description: (v) In Vitro Human Tyrosinase Activity Assay: • Primary human melanocytic lysate was used as a source of Tyrosinase enzyme. Human melanocytic lysate and test actives (at different concentrations) were incubated together for 15 mins, prior to addition of Tyrosine/DOPA substrate mix. Assay plate was then incubated at 37° C. for ˜14-16 hrs. Optical Density was measured at 405 nm and % Inhibition calculated.

[2] = Homo sapiens, Melanocyte, 72 h, read-out: Average % inhibition in cellular melanin

| Structure (SMILES) | inhibition at 1 µM [1, 2] [%] | inhibition at 10 µM [1, 2] [%] | reduction of melanin content in primary human melanocytes (in words) ([1]; galardin by itself at 1 μM) | reduction of melanin content in primary human melanocytes (in words) ([1]; galardin by itself at 10 μM) | inhibition at 1000 µM [1, 2] [%] | inhibition at 10000 µM [1, 2] [%] | inhibition at 10 µM (Tyrosinase enzyme; 0.01 mM Niacinamide) [%] | inhibition at 100 µM (Tyrosinase enzyme; 0.1 mM Niacinamide) [%] | inhibition at 1000 µM (Tyrosinase enzyme; 1 mM Niacinamide) [%] | inhibition at 10000 µM (Tyrosinase enzyme; 10 mM Niacinamide) [%] | inhibition at 50000 µM (Tyrosinase enzyme; 50 mM Niacinamide) [%] |
| --- | --- | --- | --- | --- | --- | --- | --- | --- | --- | --- | --- |
| CNC(=O)[C@H](Cc1c[nH]c2ccccc12)NC(=O)[C@@H](CC(=O)NO)CC(C)C [Galardin, (R)—N4-Hydroxy-N1-[(S)-2-(1H-indol-3-yl)-1-methylcarbamoyl-ethyl]-2-isobutyl-succinamide] | 6 | 17 | no reduction | modest reduction |  |  |  |  |  |  |  |
| NC(=O)c1cccnc1 [Niacinamide, pyridine-3-carboxamide] |  |  |  |  | -7 | 16 | 2 | 2 | 4 | -8 | -20 |
